Values joined by “and” are separate entries in the source; they are usually repeats but may differ in a detail not shown here. Identical values can stand only once. Toxic doses and inconclusive results are not listed.
Test system: P388 leukemia ip, CD2F1 mice, survival T/C
Assay: NCI In Vivo Anticancer Drug Screen. Data for tumor model P388 Leukemia (intraperitoneal) in CD2F1 (CDF1) mice
Conditions: endpoint: median survival time, higher = longer survival
Procedure, shortened: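 Mice carrying the transplanted tumor received test compound or vehicle. Survival was recorded in each group, and the value is the treated-group measurement divided by that of the vehicle-treated control group.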

[1] = dose: 25.0 mg/kg/injection, schedule: Q01DX009 (ip), vehicle: saline with Tween-80
[2] = dose: 50.0 mg/kg/injection, schedule: Q01DX009 (ip), vehicle: saline with Tween-80
[3] = dose: 100.0 mg/kg/injection, schedule: Q01DX009 (ip), vehicle: saline with Tween-80
[4] = dose: 50.0 mg/kg/injection, schedule: Q01DX005 (ip), vehicle: saline with Tween-80
[5] = dose: 100.0 mg/kg/injection, schedule: Q01DX005 (ip), vehicle: saline with Tween-80
[6] = dose: 200.0 mg/kg/injection, schedule: Q01DX005 (ip), vehicle: saline with Tween-80
[7] = dose: 50.0 mg/kg/injection, schedule: Q01DX009 (ip), vehicle: saline
[8] = dose: 100.0 mg/kg/injection, schedule: Q01DX009 (ip), vehicle: saline
[9] = dose: 7.5 mg/kg/injection, schedule: Q01DX005 (ip), vehicle: saline with Tween-80
[10] = dose: 15.0 mg/kg/injection, schedule: Q01DX005 (ip), vehicle: saline
[11] = dose: 50.0 mg/kg/injection, schedule: Q01DX005 (ip), vehicle: Klucel (hydroxypropylcellulose) (HPC)
[12] = dose: 200.0 mg/kg/injection, schedule: Q01DX009 (ip), vehicle: saline
[13] = dose: 100.0 mg/kg/injection, schedule: Q01DX005 (ip), vehicle: Klucel (hydroxypropylcellulose) (HPC)
[14] = dose: 200.0 mg/kg/injection, schedule: Q01DX005 (ip), vehicle: Klucel (hydroxypropylcellulose) (HPC)

## ClCc1ccc(CCl)c(Cl)c1Cl
[1]
  T/C: 100 % of control
dose: 25.0 mg/kg/injection, schedule: Q04DX003 (ip), vehicle: saline with Tween-80
  T/C: 100 % of control
[2]
  T/C: 95 % of control
dose: 50.0 mg/kg/injection, schedule: Q04DX003 (ip), vehicle: saline with Tween-80
  T/C: 95 % of control
[3]
  T/C: 95 % of control
dose: 100.0 mg/kg/injection, schedule: Q04DX003 (ip), vehicle: saline with Tween-80
  T/C: 95 % of control

## CN1C(=O)C2CC(=O)NC(=O)C2C1=O (configuration not stated)
[4]
  T/C: 97 % of control
[5]
  T/C: 96 % of control
[6]
  T/C: 101 % of control

## CCN(CC)CC[n+]1ccc2c(C)c3[nH]c4ccccc4c3c(C)c2c1
dose: 0.63 mg/kg/injection, schedule: Q04DX002 (ip), vehicle: water
  T/C: 110 % of control
dose: 0.78 mg/kg/injection, schedule: Q04DX003 (ip), vehicle: water
  T/C: 106 % of control
dose: 1.25 mg/kg/injection, schedule: Q04DX002 (ip), vehicle: water
  T/C: 115 % of control
dose: 1.56 mg/kg/injection, schedule: Q04DX003 (ip), vehicle: water
  T/C: 107 % of control and 120 % of control
dose: 2.5 mg/kg/injection, schedule: Q04DX002 (ip), vehicle: water
  T/C: 122 % of control
dose: 3.12 mg/kg/injection, schedule: Q04DX003 (ip), vehicle: water
  T/C: 123 % of control
dose: 6.25 mg/kg/injection, schedule: Q04DX003 (ip), vehicle: water
  T/C: 124 % of control
dose: 12.5 mg/kg/injection, schedule: Q04DX003 (ip), vehicle: water
  T/C: 124 % of control

## ClC(Cl)=C(Cl)Sc1ccccc1
[4]
  T/C: 105 % of control
[5]
  T/C: 105 % of control
[6]
  T/C: 107 % of control

## Cc1ccc(S(=O)(=O)OC(C)c2[nH]c(=O)n(C3CCCO3)c(=O)c2F)cc1 (configuration not stated)
[4]
  T/C: 99 % of control
[5]
  T/C: 91 % of control
[6]
  T/C: 93 % of control

## Cc1ccc(N=NC2=C3Sc4ccccc4N=C2N(c2ccc(Br)cc2)C(=S)N3c2ccc(Cl)cc2)cc1
[4]
  T/C: 102 % of control
[5]
  T/C: 90 % of control
[6]
  T/C: 88 % of control

## O=C1c2ccccc2C(=O)N1CCS(=O)(=O)O
dose: 12.5 mg/kg/injection, schedule: Q01DX009 (ip), vehicle: saline
  T/C: 100 % of control
dose: 25.0 mg/kg/injection, schedule: Q01DX009 (ip), vehicle: saline
  T/C: 104 % of control
[7]
  T/C: 100 % of control
[8]
  T/C: 98 % of control

## COC(=O)CN(C)P(=O)(N1CC1)N1CC1
dose: 1.87 mg/kg/injection, schedule: Q01DX005 (ip), vehicle: saline
  T/C: 107 % of control
dose: 3.75 mg/kg/injection, schedule: Q01DX005 (ip), vehicle: saline
  T/C: 124 % of control
[9]
  T/C: 198 % of control
[10]
  T/C: 197 % of control

## CCN(CC)CCC(CNc1c(C)cnc2cc(Cl)ccc12)c1ccc(OC)cc1 (configuration not stated)
[4]
  T/C: 105 % of control
[5]
  T/C: 105 % of control
[6]
  T/C: 105 % of control

## CC(=O)SCC[n+]1cc2ccccc2c2ccccc21
dose: 3.12 mg/kg/injection, schedule: Q01DX005 (ip), vehicle: Klucel (hydroxypropylcellulose) (HPC)
  T/C: 95 % of control
dose: 6.25 mg/kg/injection, schedule: Q01DX005 (ip), vehicle: Klucel (hydroxypropylcellulose) (HPC)
  T/C: 99 % of control
dose: 12.5 mg/kg/injection, schedule: Q01DX005 (ip), vehicle: Klucel (hydroxypropylcellulose) (HPC)
  T/C: 105 % of control and 108 % of control
dose: 25.0 mg/kg/injection, schedule: Q01DX005 (ip), vehicle: Klucel (hydroxypropylcellulose) (HPC)
  T/C: 100 % of control
[11]
  T/C: 115 % of control and 118 % of control

## [N-]=[N+]=N/C=C/C(=O)OCCBr
[10]
  T/C: 97 % of control
dose: 30.0 mg/kg/injection, schedule: Q01DX005 (ip), vehicle: saline
  T/C: 103 % of control
dose: 60.0 mg/kg/injection, schedule: Q01DX005 (ip), vehicle: saline
  T/C: 102 % of control and 97 % of control

## CC(=O)OCc1ccc(O)c(C=O)c1
dose: 12.5 mg/kg/injection, schedule: Q01DX005 (ip), vehicle: saline with Tween-80
  T/C: 118 % of control
[4]
  T/C: 113 % of control

## O=c1cc(C(F)(F)F)c2cc3c(cc2o1)NCCC3
dose: 60.0 mg/kg/injection, schedule: Q01DX005 (ip), vehicle: saline with Tween-80
  T/C: 89 % of control
dose: 120.0 mg/kg/injection, schedule: Q01DX005 (ip), vehicle: saline with Tween-80
  T/C: 86 % of control

## C1=C[N-]c2c3c(ccc2=C1)=CC=C[N-]3.C1=C[N-]c2c3c(ccc2=C1)=CC=C[N-]3.C1=C[N-]c2c3c(ccc2=C1)=CC=C[N-]3.[Co+3].[O-][Cl+3]([O-])([O-])O
[9]
  T/C: 98 % of control
dose: 15.0 mg/kg/injection, schedule: Q01DX005 (ip), vehicle: saline with Tween-80
  T/C: 98 % of control
dose: 30.0 mg/kg/injection, schedule: Q01DX005 (ip), vehicle: saline with Tween-80
  T/C: 104 % of control

## COc1cc(C2c3cc(OS(=O)(=O)c4ccc(C)cc4)c(OC)cc3CC3C(=O)OCC32)ccc1OS(=O)(=O)c1ccc(C)cc1 (configuration not stated)
[4]
  T/C: 91 % of control and 92 % of control
[5]
  T/C: 91 % of control
[6]
  T/C: 91 % of control

## CCOCCSc1ccccc1
[1]
  T/C: 99 % of control
[2]
  T/C: 103 % of control
[3]
  T/C: 112 % of control
dose: 200.0 mg/kg/injection, schedule: Q01DX009 (ip), vehicle: saline with Tween-80
  T/C: 105 % of control

## Fc1cccc(CSC(=S)Nc2ccc(F)c(F)c2)c1
[7]
  T/C: 116 % of control
[8]
  T/C: 105 % of control
[12]
  T/C: 115 % of control

## CC1(C)OC(=O)C(Cc2ccco2)C(=O)O1
dose: 100.0 mg/kg/injection, schedule: Q04DX002 (ip), vehicle: saline with Tween-80
  T/C: 97 % of control
dose: 200.0 mg/kg/injection, schedule: Q04DX002 (ip), vehicle: saline with Tween-80
  T/C: 106 % of control
dose: 400.0 mg/kg/injection, schedule: Q04DX002 (ip), vehicle: saline with Tween-80
  T/C: 101 % of control

## CSc1nc(C)nc2sc(CO)nc12
dose: 100.0 mg/kg/injection, schedule: Q04DX002 (ip), vehicle: suspension in saline
  T/C: 97 % of control
dose: 200.0 mg/kg/injection, schedule: Q04DX002 (ip), vehicle: suspension in saline
  T/C: 97 % of control
dose: 400.0 mg/kg/injection, schedule: Q04DX002 (ip), vehicle: suspension in saline
  T/C: 96 % of control

## Clc1ccc(-c2c(-c3ccccc3)c3n(c2Sc2ccccc2)CCC3)cc1
dose: 60.0 mg/kg/injection, schedule: Q01DX005 (ip), vehicle: Klucel (hydroxypropylcellulose) (HPC)
  T/C: 92 % of control
dose: 120.0 mg/kg/injection, schedule: Q01DX005 (ip), vehicle: Klucel (hydroxypropylcellulose) (HPC)
  T/C: 89 % of control
dose: 240.0 mg/kg/injection, schedule: Q01DX005 (ip), vehicle: Klucel (hydroxypropylcellulose) (HPC)
  T/C: 86 % of control

## C=COC(=O)CCCCCCCC
dose: 100.0 mg/kg/injection, schedule: Q04DX003 (ip), vehicle: Klucel (hydroxypropylcellulose) (HPC)
  T/C: 103 % of control
dose: 200.0 mg/kg/injection, schedule: Q04DX003 (ip), vehicle: Klucel (hydroxypropylcellulose) (HPC)
  T/C: 105 % of control
dose: 400.0 mg/kg/injection, schedule: Q04DX003 (ip), vehicle: Klucel (hydroxypropylcellulose) (HPC)
  T/C: 95 % of control

## Cc1cc(NCCCCCCNc2cc(C)[n+](C)c3ccccc23)c2ccccc2[n+]1C
dose: 3.12 mg/kg/injection, schedule: Q01DX005 (ip), vehicle: suspension in saline
  T/C: 101 % of control
dose: 6.25 mg/kg/injection, schedule: Q01DX005 (ip), vehicle: suspension in saline
  T/C: 106 % of control
dose: 12.5 mg/kg/injection, schedule: Q01DX005 (ip), vehicle: suspension in saline
  T/C: 115 % of control

## CCCCCOC(=O)C1=CCN2CCCC12C (configuration not stated)
dose: 25.0 mg/kg/injection, schedule: Q01DX001 (ip), vehicle: saline with Tween-80
  T/C: 97 % of control
dose: 50.0 mg/kg/injection, schedule: Q01DX001 (ip), vehicle: saline with Tween-80
  T/C: 105 % of control
dose: 100.0 mg/kg/injection, schedule: Q01DX001 (ip), vehicle: saline with Tween-80
  T/C: 97 % of control

## S=c1[nH]nc(Cc2cccc3ccccc23)n1-c1ccccc1
[11]
  T/C: 97 % of control
[13]
  T/C: 99 % of control
[14]
  T/C: 90 % of control

## O=C(c1ccccc1)c1no[n+]([O-])c1C(=O)c1ccccc1
dose: 3.12 mg/kg/injection, schedule: Q01DX009 (ip), vehicle: Klucel (hydroxypropylcellulose) (HPC)
  T/C: 102 % of control and 114 % of control and 116 % of control
dose: 6.25 mg/kg/injection, schedule: Q01DX009 (ip), vehicle: Klucel (hydroxypropylcellulose) (HPC)
  T/C: 100 % of control and 117 % of control
dose: 12.5 mg/kg/injection, schedule: Q01DX009 (ip), vehicle: Klucel (hydroxypropylcellulose) (HPC)
  T/C: 105 % of control and 123 % of control

## CCOC(=O)N(C)C(=O)NC
[7]
  T/C: 103 % of control and 105 % of control
[8]
  T/C: 103 % of control and 109 % of control
[12]
  T/C: 100 % of control and 104 % of control

## Cn1c(C=O)cc2c(Cl)nccc21
[11]
  T/C: 103 % of control
[13]
  T/C: 103 % of control
[14]
  T/C: 101 % of control

Source: PubChem BioAssay AID330 (DTP/NCI, 2004)
